Reference: patent publication US12453785B2, “Macrocyclic chelators and methods of use thereof” (JANSSEN BIOTECH, INC., priority 2019, dated 2025)
Entries after “also recorded” stand apart in the source; their conditions may differ.

Columns and labels:
Format in all cases: physicochemical
[1] = DTPA challenge of ^225Ac complexes, iTLC-SG; conditions: 30 min; for chelated Ac-225 (iTLC) after DTPA: reaction mixture with 10 mM DTPA (pH 6.5); for free ^225Ac by iTLC-SG after DTPA challenge / free Ac-225 at the solvent front of the iTLC-SG after DTPA challenge: free chelator, 10 mM DTPA; for free ^225Ac by iTLC-SG after DTPA challenge: high ^225Ac/chelator ratio (50 μCi); for free Ac-225 at the solvent front of the iTLC-SG after DTPA challenge: low ^225Ac/chelator ratio
Experimental: DTPA challenge: 0.5 μL of the reaction mixture was mixed with 15 μL of 10 mM DTPA solution and the mixture was incubated for 30 min.
DTPA challenge: 10 μL of fraction #3 collected after PD-10 column was mixed with 15 μL of 10 mM DTPA solution (pH 6.5), and incubated for 30 min.
0.5 μL of reaction mixture was mixed with 15 μL 10 mM DTPA (pH 6.5) and incubated for 30 min.

[2] = ^225Ac(III) chelation / labeling, iTLC-SG analysis; conditions: pH ~6.5; for chelated Ac-225 (iTLC): free chelator (2 mg/mL 3 μL; ethoxylmethyl isomers 1 mg/mL 1 μL), 30 μCi ^225Ac, 37° C. 2 h; for free ^225Ac by iTLC-SG before DTPA challenge / free Ac-225 at the solvent front of the iTLC-SG: free chelator; for free ^225Ac by iTLC-SG before DTPA challenge: high ^225Ac/chelator ratio (50 μCi), room temperature 1.5-2 hr; for free Ac-225 at the solvent front of the iTLC-SG: low ^225Ac/chelator ratio (30 μCi), room temperature 1-2 hr
[3] = Chelation test with Lanthanum (III) (HPLC, LCMS); conditions: La(NO3)3, room temperature
Experimental: HPLC method: XBridge C18 3.5 μm 150×4.6 mm, 100 Å column; Mobile phase A: 0.1% TFA in H2O, B: 0.1% TFA in ACN; gradient 10% to 30% B in 0-20 min, gradient 30% to 100% B in 20-20.1 min, isocratic at 100% B in 20.1-25 min, gradient 100% to 10% B in 25-25.1 min, isocratic at 10% B in 25.1-30 min; postrun 3 min; flow rate 1 mL/min; column temperature 30° C.; injection volume 5 uL. Synthesis and Characterization of H2bp18c6-Benzyl-Phenyl
An aqueous solution of H2bp18c6-benzyl-isopentyl in water (˜3 mg/mL=˜5 mM, 20 μL, 0.1 μmol) was treated with La(NO3)3 (10 mM in metal free water, 50 μL, 0.5 μmol). An aqueous solution of H2bp18c6-benzyl-phenyl in water (˜3 mg/mL=˜5 mM, 20 μL, 0.1 μmol) was treated with La(NO3)3 (10 mM in metal free water, 50 μL, 0.5 μmol). After thorough mixing, each solution was analyzed by LCMS and HPLC to determine whether complexes of the chelator and La^3+ formed.
Complex formation was also confirmed by LCMS.

## O=C(O)c1cccc(CN2CCOCCOCCN(Cc3cccc(C(=O)O)n3)CCO[C@@H](CO)COCC2)n1 (single isomer, unassigned) [H2bp18c6-off Macrocycle-hydroxylmethyl isomer I]
[1]
  chelated Ac-225 (iTLC) after DTPA: 99%
[2]
  chelated Ac-225 (iTLC): 99%

## O=C(O)c1cccc(CN2CCOCCOCCN(Cc3cccc(C(=O)O)n3)CCO[C@@H]3CCC[C@@H]3OCC2)n1
[1]
  chelated Ac-225 (iTLC) after DTPA: 99%
[2]
  chelated Ac-225 (iTLC): 99%

## CCOC[C@H]1COCCN(Cc2cccc(C(=O)O)n2)CCOCCOCCN(Cc2cccc(C(=O)O)n2)CCO1 (single isomer, unassigned) [H2bp18c6-off Macrocycle-ethoxylmethyl isomer I]
[1]
  chelated Ac-225 (iTLC) after DTPA: 99%
[2]
  chelated Ac-225 (iTLC): 99%

## O=C(O)c1cccc(CN2CCOCCOCCN(Cc3cccc(C(=O)O)n3)CCO[C@H](CO)COCC2)n1 (single isomer, unassigned) [H2bp18c6-off Macrocycle-hydroxylmethyl isomer II]
[1]
  chelated Ac-225 (iTLC) after DTPA: 99%
[2]
  chelated Ac-225 (iTLC): 99%

## O=C(O)c1cccc(CN2CCOCCOCCN(C(c3ccccc3)c3cccc(C(=O)O)n3)CCOCCOCC2)n1 (centres unmarked) [H2bp18c6-benzyl-phenyl]
[1]
  free ^225Ac by iTLC-SG after DTPA challenge: No free ^225Ac was detected
  free Ac-225 at the solvent front of the iTLC-SG after DTPA challenge: No free ^225Ac was detected after DTPA challenge
[2]
  free ^225Ac by iTLC-SG before DTPA challenge: No free ^225Ac was detected
  free Ac-225 at the solvent front of the iTLC-SG: No free ^225Ac ion was detected; also recorded: No radioactivity was observed at the solvent front
[3]
  chelation with La^3+ (shift in HPLC peak retention time): rapid and stoichiometric chelation

## CCOC[C@@H]1COCCN(Cc2cccc(C(=O)O)n2)CCOCCOCCN(Cc2cccc(C(=O)O)n2)CCO1 (single isomer, unassigned) [H2bp18c6-off Macrocycle-ethoxylmethyl isomer II]
[1]
  chelated Ac-225 (iTLC) after DTPA: 99%
[2]
  chelated Ac-225 (iTLC): 99%

## O=C(O)c1cccc(CN2CCOCCOCCN(Cc3cccc(C(=O)O)n3)CCO[C@@H]3CCC[C@H]3OCC2)n1
[1]
  chelated Ac-225 (iTLC) after DTPA: 99%
[2]
  chelated Ac-225 (iTLC): 99%

## CC(C)CCC(c1cccc(C(=O)O)n1)N1CCOCCOCCN(Cc2cccc(C(=O)O)n2)CCOCCOCC1 (centres unmarked)
[1]
  free ^225Ac by iTLC-SG after DTPA challenge: No free ^225Ac was detected
  free Ac-225 at the solvent front of the iTLC-SG after DTPA challenge: No radioactivity was observed at the solvent front
[2]
  free ^225Ac by iTLC-SG before DTPA challenge: No free ^225Ac was detected
  free Ac-225 at the solvent front of the iTLC-SG: No radioactivity was observed at the solvent front
[3]
  chelation with La^3+ (shift in HPLC peak retention time): rapid chelation
[3]; listed as isopentane-H2bp18c6
  chelation with La^3+ (shift in HPLC peak retention time): rapid and stoichiometric chelation

## O=C(O)c1cccc(CN2CCOCCOCCN(Cc3cccc(C(=O)O)n3)CCO[C@@H]3CCCC[C@@H]3OCC2)n1 [H2bp18c6-cis-cyclohexyl-fused Macrocycle]
[1]
  chelated Ac-225 (iTLC) after DTPA: 99%
[2]
  chelated Ac-225 (iTLC): 99%

## O=C(NCCC(=O)N1Cc2ccccc2C#Cc2ccccc21)c1ccc(C(c2cccc(C(=O)O)n2)N2CCOCCOCCN(Cc3cccc(C(=O)O)n3)CCOCCOCC2)cc1 (centres unmarked) [H2bp18c6-benzyl-phenyl-DBCO]
[1]
  free Ac-225 at the solvent front of the iTLC-SG after DTPA challenge: No radioactivity was detected at the solvent front
[2]
  free Ac-225 at the solvent front of the iTLC-SG: No radioactivity activity was observed at the solvent front

## O=C(O)c1cccc(CN2CCOCCOCCN(Cc3cccc(C(=O)O)n3)CCO[C@@H]3CCCC[C@H]3OCC2)n1
[1]
  chelated Ac-225 (iTLC) after DTPA: 99%
[2]
  chelated Ac-225 (iTLC): 99%
